According to patent US9173836B2, “Pharmaceutical preparations for treatments of diseases and disorders of the breast” (FemmeParma Holding Company, Inc., priority 2003, dated 2015):
Like-named read-outs stand apart in the source and are kept apart here. Marks after values point to notes of the source that are not given here. One block for each compound: values may come before it.

How the values were obtained:
[1] = tested on: women treated for cyclical mastalgia; conditions: in vivo; cited from earlier work
in vitro = conditions: for recovery at 48 h, 100 µM: % Recovery
Experimental: Dermatomed human abdominal skin was obtained from Asterand Inc. (Detroit, Mich.). The donor was a person. […] After thawing at room temperature, the skin was soaked in saline for 30 minutes, and then cut to the appropriate size (approximately 4 cm^2) necessary. Excess moisture and saline were wiped off. The tissue was immediately transferred to the Franz-cell diffusion chamber and clamped between the donor and receiver chambers. The exposed surface area of the Franz-cell diffusion chamber was 1.77 cm^2. The receiver compartment was filled with 8 mL KRB buffer. The reservoir also contained a stirring bar to mix the reservoir contents. […] The temperature was set to maintain the tissue surface at 32° C.
Samples (1.0 mL) were taken from the receiver compartment at 0, 2, 4, 8, 24, and 48 hours for formulation assays and the control assay. After taking samples, an equal volume of receiver KRB buffer was added back to replace the buffer removed. For the control assay, 200 μl of dosing solution (prior to 0 hours) was taken from the container and 200 μl of 0 and 48 hours samples were taken from the donor side of the chamber.
The liquid chromatography phase was carried out using a Keystone Hypersil BDC C12 30×2.0 mm i.d., 3 μm, with guard column and 25 mM ammonium formate buffer (pH 3.5), where Aqueous Reservoir (A) was 90% water, 10% buffer, and Organic Reservoir (B) was 90% acetonitrile, 10% buffer. A flow rate of 300 μL/minute was applied to a gradient program of 0.0 min: 100% A, 0% B; 1.5 min: 0% A, 100% B; 2.0 min: 0% A, 100% B; 2.1 min: 100% A, 0% B; 3.5 min: 100% A, 0% B; for a total run time of 3.5 minutes (Autosampler: 30 μL injection volume; Autosampler Wash: water/acetonitrile/2-propanol:1/1/1; with 0.2% formic acid). Mass spectroscopy was carried out using a PE SCIEX API 3000 (interface: turbo ionspray; mode: multiple reaction monitoring; method: 3.5 minute duration).
The following calculations were performed: Flux=d[(Cr×Vr)/A]/dt

[2] = format: in vitro ADME; conditions: 10 μg/ml, pH 7.4
Experimental: The concentration in the apparatus was determined after 0 and 180 minutes of incubation to mimic a skin permeation experiment. […] The experiment was done in triplicate.

[3] = Formulations 1 and 2

Compound: CC(C)C[C@H]1C(=O)N2CCC[C@H]2[C@]2(O)O[C@](NC(=O)[C@@H]3C=C4c5cccc6[nH]c(Br)c(c56)C[C@H]4N(C)C3)(C(C)C)C(=O)N12 [Bromocriptine]
- Women complaining of more severe side effects [1]: 10%
- Women reporting mild side effects (nausea, dizziness, headaches, irritability) [1]: 30%

Compound: Cn1c(=O)c2c(ncn2C)n(C)c1=O [Caffeine, caffeine]
- Dosing solution concentration, Mean ± S.D. (in vitro; 100 μM): 108.7 ± 1.5 µM
- Cumulative Receiver Concentration (in vitro; female, human, 0 h, 100 μM): 0* μM
- Cumulative Receiver Concentration, Mean ± S.D. (in vitro; female, human, 0 h, 100 μM): 0 ± 0 µM
- Donor concentration, Mean ± S.D. (in vitro; female, human, 0 h, 100 μM): 102.7 ± 0.6 µM
- Cumulative Receiver Concentration, Mean ± S.D. (in vitro; female, human, 2 h, 100 μM): 0.009 ± 0.015 µM
- Cumulative Receiver Concentration, Mean ± S.D. (in vitro; female, human, 4 h, 100 μM): 0.018 ± 0.030 µM
- Cumulative Receiver Concentration, Mean ± S.D. (in vitro; female, human, 8 h, 100 μM): 0.050 ± 0.075 µM
- Cumulative Receiver Concentration, Mean ± S.D. (in vitro; female, human, 24 h, 100 μM): 0.196 ± 0.254 µM
- Cumulative Receiver Concentration, Mean ± S.D. (in vitro; female, human, 48 h, 100 μM): 0.390 ± 0.469 µM
- Donor concentration, Mean ± S.D. (in vitro; female, human, 48 h, 100 μM): 102.4 ± 11.2 µM
- recovery at 48 h, 100 µM (in vitro; female, human): 104%
- recovery at 48 h, 100 µM (in vitro; female, human, Mean ± S.D.): 95.6 ± 8.7%

- Average Measured Concentration ± STD (N = 3) ([2]; 0 min): 8.9 ± 0.3 µg/mL
- Average Measured Concentration ± STD (N = 3) ([2]; 180 min): 8.5 ± 0.3 µg/mL
Compound: C#C[C@]1(O)CC[C@H]2[C@@H]3CCC4=Cc5oncc5C[C@]4(C)[C@H]3CC[C@@]21C [Danazol, danazol]

- % Recovery, Mean ± S.D. (in vitro): 85.3 ± 5.4%
- Papp (in vitro): 0 nm/s
- Papp, Mean ± S.D. (in vitro): 0 ± 0 ×10^−6 cm/s
Compound: lucifer yellow
- Tissue integrity marker in receiver buffer (in vitro): below lower limit of quantification (LLOQ) in all receiver buffer
- Lucifer yellow permeation (membrane integrity) [3]: no permeation of Lucifer yellow detectable until after 8 or 24 hours of incubation
